One assay concerns the target T1, human CB2 (hCB2) (Homo sapiens, UniProt P34972).
T1 construct: (cDNA clone) CNR0200000
The assay can be described thus: 35S GTPγS binding assay, hCB2 agonist. Format: biochemical. As for the experimental part:
cDNA expression clones for human CB1 (hCB1, Genbank Accession No. AY225225) and human CB2 (hCB2, Genbank Accession No. AY242132) expressed in vector pcDNA3.1+ were purchased from UMR cDNA Resource Center, Rolla, Mo. (Clone ID CNR01L000 for hCB1; CNR0200000 for hCB2).
(§1) Membranes were isolated from transfected cells as follows. Monolayers of cultured cells were washed twice with phosphate-buffered saline (PBS). […] Homogenates were centrifuged 10 minutes at 1000×g at 4° C. The supernatant was collected and was centrifuged for 1 hour at 40,000×g. The supernatant was then decanted and the resulting pellet was re-suspended in 20 mM HEPES, pH 7.4, 5 mM MgCl2, 1 mM EDTA, 10% sucrose with complete cocktail protease inhibitors. Protein concentration of membrane suspensions were measured by Bradford Protein Assay using bovine serum albumin as the standard (BioRad catalog #500-0006). Protein concentrations of membrane suspensions were adjusted with the final buffer in the range of 5 to 10 mg/mL and were stored at −80° C. until further use.
(§2) Functional assays which monitor G-protein coupled receptor or downstream cellular responses can be used to characterize potential CB1 receptor and/or CB2 receptor agonist or antagonist activities. Direct activation (or inhibition of activation) can be monitored using a GTPγS assay (membrane-based assay) or cAMP assay (whole cell-based assay).
^35S GTPγS binding assays were performed by incubating recombinant cell membranes prepared above (5 μg) in the presence of scintillation proximity assay beads (SPA beads, Catalog #RPNQ0252 GE Healthcare, Buckinghamshire, England) in GTPγS binding buffer [50 mM HEPES (pH 7.4), 100 mM NaCl, 5 mM MgCl2, 0.001% saponin (Sigma catalog #S4521)] supplemented with 20 uM GDP (Sigma catalog #G7127) in the presence or absence of test compound. The reaction was carried out in 96-well microplates with 0.1 nM [^35S]GTPγS (specific activity=1250 Ci/mmol; Perkin Elmer catalog #NEG030X250UC) in a final volume of 100 uL. After a 90 min room temperature incubation, the reaction was analyzed using a scintillation counter (Perkin Elmer Microbeta instrument). Binding data were analyzed using GraphPad Prism.
Background: GTPγS is a poorly hydrolysed GTP analogue; its binding reports G protein activation.

The target of a further assay is T2, human CB1 receptors (Homo sapiens, UniProt P21554).
T2 construct: (cDNA clone) CNR01L000
T2 sequence (P21554 whole entry): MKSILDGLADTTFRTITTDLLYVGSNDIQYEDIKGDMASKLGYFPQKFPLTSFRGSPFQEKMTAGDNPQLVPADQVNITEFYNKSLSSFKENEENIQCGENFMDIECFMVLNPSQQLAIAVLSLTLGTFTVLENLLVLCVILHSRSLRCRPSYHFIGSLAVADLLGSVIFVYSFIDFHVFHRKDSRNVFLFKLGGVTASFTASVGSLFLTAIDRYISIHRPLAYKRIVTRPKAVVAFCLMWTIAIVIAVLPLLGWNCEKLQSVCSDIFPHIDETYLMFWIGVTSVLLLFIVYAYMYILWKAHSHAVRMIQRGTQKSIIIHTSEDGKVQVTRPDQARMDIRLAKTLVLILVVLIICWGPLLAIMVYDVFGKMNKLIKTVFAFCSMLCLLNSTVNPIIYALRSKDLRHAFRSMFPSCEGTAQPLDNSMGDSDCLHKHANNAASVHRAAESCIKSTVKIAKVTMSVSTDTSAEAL
The assay can be described thus: cAMP assay in HEK-293 cells, hCB1 agonist. It is filed as cell-based. The conditions noted are these: inhibition of forskolin-stimulated cAMP, HEK-293 cells.
From the text: (§3) Stable, HEK-293-derived cell lines that recombinantly express hCBI or hCB2 were established. In brief, the clone hCB1 (CNR IL) or hCB2 (CNR2) was transfected into human embryonic kidney cells (HEK-293) using Lipofectamine 2000 (Gibco, Cat#11668-019) according to the manufacturer's protocol. Transfected clones were isolated by single colony purification and clones were screened for receptor expression using a whole cell, ^3H—CP 55,940 radioligand binding assay. HEK-293 stable cells were maintained in Dulbecco's modified Eagles medium (DMEM) containing 10% fetal bovine serum, 2 mM L-glutamine and 0.5 mg/mL G-418.
as §2
(§4) cAMP assays were performed in HEK-293 cells stably expressing human CB1 or CB2 receptors. For cannabinoid receptor functional assays measuring agonist effects on cellular cAMP levels, monolayers of cultured cells were harvested with enzyme-free PBS-based cell dissociation buffer (Gibco, Cat#13151-04). Cells suspensions were centrifuged and the cells were washed once with PBS, were centrifuged again, and the cells were re-suspended in HBSS (Hank's Balanced Salt Solution, Cellgro, Cat #21-022-CV) solution containing 10 mM HEPES and 0.1% fatty acid free BSA (Sigma, Cat #A0281). Cell suspensions were prepared at 1,500,000 cells per ml. Stock solutions of test substances (10 mM) in DMSO were diluted to 1 mM using 30% DMSO as diluent. Test substances of solutions (1 mM) were further diluted down to 3× of final assay concentrations in the above HBSS buffer containing 0.1% BSA in the presence of 90 uM forskolin (Sigma Cat#F6886). To perform the assay, 20 uL of cell suspension (1,500,000 cells/mL) were added to each well in 96 well plate and treated with 10 uL test substance solution diluted as described above. Cells and compounds were incubated at 37° C. for 30 minutes. Cells were lysed and cAMP concentration was measured using DiscoveRx −XS+ cAMP assay kit (DiscoveRx Corporation Ltd., Fremont, Calif., USA, Cat #90-0075-03), following the manufacturer's protocol. GraphPad Prism software was used to calculate EC50 values using sigmoidal dose response curve fitting. The maximal amount of cAMP produced by forskolin was defined as 100%. CB1 or CB2 agonists reduced forskolin-stimulated cAMP signaling. The EC50 value of an agonist compound was defined as the concentration at which 50% of the forskolin-stimulated cAMP synthesis was inhibited.

In assay [1] the target is T3, recombinant human cannabinoid receptor CB2 (Homo sapiens, UniProt P34972).
T3 construct: (cDNA clone) CNR0200000
T3 sequence (P34972 whole entry): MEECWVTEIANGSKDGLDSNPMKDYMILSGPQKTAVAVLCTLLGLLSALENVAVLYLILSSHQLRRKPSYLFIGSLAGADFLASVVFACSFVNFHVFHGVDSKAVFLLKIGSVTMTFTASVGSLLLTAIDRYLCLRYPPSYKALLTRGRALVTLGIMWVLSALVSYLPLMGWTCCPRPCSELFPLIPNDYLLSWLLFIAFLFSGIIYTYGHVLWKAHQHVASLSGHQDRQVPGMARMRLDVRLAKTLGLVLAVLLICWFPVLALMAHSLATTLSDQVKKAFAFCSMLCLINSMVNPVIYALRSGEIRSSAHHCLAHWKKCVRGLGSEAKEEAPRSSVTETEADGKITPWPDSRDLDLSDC
The assay can be described thus: Cannabinoid receptor radioligand binding assay, [3H]-CP 55,940 displacement, hCB2. The protocol:
as §1
A rapid filtration technique using Millipore FB filter plates (Catalog #MADVNOB) and filtration apparatus (Millipore system Catalog MAVM0960R) with vacuum aspiration was used to harvest and rinse labeled membranes (8 times with 0.2 mL of chilled binding buffer). […] Binding data were analyzed using GraphPad Prism (GraphPad Software, Inc. San Diego, Calif.).

Assay [2] deals with T4, recombinant human cannabinoid receptor CB1 (Homo sapiens, UniProt P21554).
T4 construct: (cDNA clone) CNR01L000
T4 sequence (P21554 whole entry): as the sequence (P21554 whole entry) above
Nature of the assay: Cannabinoid receptor radioligand binding assay, [3H]-CP 55,940 displacement, hCB1.
From the text: as §3
Membranes were isolated from transfected cells as follows. Monolayers of cultured cells were washed twice with phosphate-buffered saline (PBS). Cells were scraped into 20 mM HEPES, pH 7.4, 10 mM EDTA containing complete cocktail protease inhibitors (Roche, Catalog #11 697 498 001) and were homogenized by an electric-powered mechanical probe homogenizer (Omni GLH; probe G7-195S) for 40 seconds at 7000 rpm. Homogenates were centrifuged 10 minutes at 1000×g at 4° C. The supernatant was collected and was centrifuged for 1 hour at 40,000×g. The supernatant was then decanted and the resulting pellet was re-suspended in 20 mM HEPES, pH 7.4, 5 mM MgCl2, 1 mM EDTA, 10% sucrose with complete cocktail protease inhibitors. Protein concentration of membrane suspensions were measured by Bradford Protein Assay using bovine serum albumin as the standard (BioRad catalog #500-0006). Protein concentrations of membrane suspensions were adjusted with the final buffer in the range of 5 to 10 mg/mL and were stored at −80° C. until further use.
Radioligand binding assays were performed by incubating membranes (2-10 μg protein) prepared from HEK-293 cells expressing recombinant human cannabinoid receptors, CB1 or CB2, at room temperature with 0.5 nM cannabinoid receptor agonist, [^3H]-CP 55,940 (Perkin Elmer, catalog #NET1051) in 0.2 mL of binding buffer (50 mM Tris-HCl, pH 7.5, 5 mM MgCl2, 2.5 mM EDTA) and 0.1% fatty acid free bovine serum albumin (Sigma Cat. #A0821) for 90 minutes. A rapid filtration technique using Millipore FB filter plates (Catalog #MADVNOB) and filtration apparatus (Millipore system Catalog MAVM0960R) with vacuum aspiration was used to harvest and rinse labeled membranes (8 times with 0.2 mL of chilled binding buffer). The radioactivity bound to the filters was counted with 0.05 mL of liquid scintillant (UltraGold MV, PerkinElmer catalog #6013159) in a scintillation counter (Perkin Elmer Microbeta instrument). Nonspecific binding was determined in the presence of unlabeled 1 μM CP 55,940 (Sigma Aldrich, catalog #C1112). Binding data were analyzed using GraphPad Prism (GraphPad Software, Inc. San Diego, Calif.).

The target of a further assay is T5, human CB2 receptors (Homo sapiens, UniProt P34972).
T5 construct: (cDNA clone) CNR0200000
T5 sequence (P34972 whole entry): as the sequence (P34972 whole entry) above
The assay can be described thus: cAMP assay in HEK-293 cells, hCB2 agonist. It is filed as cell-based. The conditions noted are these: for hCB2 EC50 (cAMP ag, nM): inhibition of forskolin-stimulated cAMP, HEK-293 cells. The protocol:
as §2
as §4, with “For cannabinoid receptor functional assays measuring agonist effects on cellular cAMP levels, monolayers of cultured cells were harvested with enzyme-free PBS-based cell dissociation buffer (Gibco, Cat#13151-04).” left out, “100%.” for “100%. CB1 or CB2 agonists reduced forskolin-stimulated cAMP signaling. The EC50 value of an agonist compound was defined as the concentration at which 50% of the forskolin-stimulated cAMP synthesis was inhibited.”
Background: Cyclic AMP is a second messenger, typically raised through Gs and lowered through Gi signalling.

[3] abbreviates: displacement of 0.5 nM [3H]-CP 55,940, read-out: hCB2 IC50 (CP displ).
The mark [4] stands for this setting: displacement of 0.5 nM [3H]-CP 55,940, read-out: hCB1 IC50 (CP displ).

The structures appear in SMILES notation. pEC50, pIC50: −log10 of the molar value. Read-outs that look alike come from different tables or passages of the source.

T1 sequence (P34972 whole entry): as above

As usually defined, the pEC50 is the EC50 on a negative log10 scale, so that one unit is a factor of ten. Read a low pEC50 as a high EC50. Usually pIC50 stands for the IC50 on a negative log10 scale, so that one unit is a factor of ten. Regarding `Cc1cc2cc(C(=O)c3cccc(Cl)c3Cl)sc2n1C` [Compound 20, (2,3-Dichlorophenyl)(5,6-dimethyl-6H-thieno[2,3-b]pyrrol-2-yl)methanone], at human CB2 (hCB2), the pEC50 was 6.00 to 7.00. The “hCB1 EC50 (cAMP ag, nM)” value on human CB1 receptors was “NS (NS means “Not Significant,” which means less than 30% agonist activity when compared to the positive control.)”. For the same compound, the negative-log IC50 (pIC50) in assay [1] was 5.00 to 6.00; in assay [2], under 5.00.
`COc1ccc(C(=O)c2cc3cc(C)n(CCn4ccnc4)c3s2)cc1` [Compound 67, (6-(2-(1H-Imidazol-1-yl)ethyl)-5-methyl-6H-thieno[2,3-b]pyrrol-2-yl)(4-methoxyphenyl)methanone] had a pEC50 on human CB2 (hCB2) of 6.00 to 7.00. For the same compound, the “hCB1 EC50 (cAMP ag, nM)” value on human CB1 receptors is “NS (NS means “Not Significant,” which means less than 30% agonist activity when compared to the positive control.)”. The pIC50 is 5.00 to 6.00 in assay [1] and under 5.00 in assay [2].
At human CB2 receptors, `COc1ccc(C(=O)c2cc3cc(C)[nH]c3s2)c(Cl)c1` [Compound 79, (2-Chloro-4-methoxyphenyl)(5-methyl-6H-thieno[2,3-b]pyrrol-2-yl)methanone] showed a pEC50 of 6.00 to 7.00. Further, the “hCB1 EC50 (cAMP ag, nM)” value on human CB1 receptors is “NS (NS means “Not Significant,” which means less than 30% agonist activity when compared to the positive control.)”. Further, the pIC50 in assay [1] and in assay [2] was under 5.00 each time.
Consider `COc1ccc(C(=O)c2cc3cc(C)n(CCCNS(=O)(=O)c4ccccc4)c3s2)cc1` [Compound 81, N-(3-(2-(4-Methoxybenzoyl)-5-methyl-6H-thieno[2,3-b]pyrrol-6-yl)propyl)benzenesulfonamide], for which the “hCB2 EC50 (cAMP ag, nM)” value on human CB2 receptors is listed as “NS (NS means “Not Significant,” which means less than 30% agonist activity when compared to the positive control.)”. Moreover, on human CB1 receptors, the “hCB1 EC50 (cAMP ag, nM)” value is “NS (NS means “Not Significant,” which means less than 30% agonist activity when compared to the positive control.)”. Also, the pIC50 was 5.00 to 6.00 in assay [1] (setting [3]) and under 5.00 in assay [2] (setting [4]).
With `COc1ccc(C(=O)c2cc3cc(C)n(CCN4CCN(S(C)(=O)=O)CC4)c3s2)cn1` [Compound 143, (6-methoxypyridin-3-yl)(5-methyl-6-(2-(4-(methylsulfonyl)piperazin-1-yl)ethyl)-6H-thieno[2,3-b]pyrrol-2-yl)methanone], the “hCB2 EC50 (cAMP ag, nM)” value on human CB2 receptors is listed as “NS (NS means “Not Significant,” which means less than 30% agonist activity when compared to the positive control.)”. Further, the “hCB1 EC50 (cAMP ag, nM)” value at human CB1 receptors is recorded as “NS (NS means “Not Significant,” which means less than 30% agonist activity when compared to the positive control.)”. The negative logarithm of the IC50 (pIC50) in assay [1] (setting [3]) and in assay [2] (setting [4]) was under 5.00 each time.
As for `COc1ccc(C(=O)c2cc3cc(C)n(CCN4CCCC4C(=O)O)c3s2)cn1` (stereo not shown) [Compound 146, 1-(2-(2-(6-methoxynicotinoyl)-5-methyl-6H-thieno[2,3-b]pyrrol-6-yl)ethyl)pyrrolidine-2-carboxylic acid], on human CB2 receptors, the pEC50 was 6.00 to 7.00. Besides, at human CB1 receptors, the “hCB1 EC50 (cAMP ag, nM)” value is recorded as “NS (NS means “Not Significant,” which means less than 30% agonist activity when compared to the positive control.)”. In addition, the pIC50 in assay [1] is 6.00 to 7.00; in assay [2], under 5.00.
In turn, `COc1ccc(C(=O)c2cc3cc(C)n(CCNCC4CCOCC4)c3s2)cn1` [Compound 149, (6-methoxypyridin-3-yl)(5-methyl-6-(2-((tetrahydro-2H-pyran-4-yl)methylamino)ethyl)-6H-thieno[2,3-b]pyrrol-2-yl)methanone] gave a negative-log EC50 (pEC50) at human CB2 receptors of 6.00 to 7.00. Moreover, the “hCB1 EC50 (cAMP ag, nM)” value at human CB1 receptors is listed as “NS (NS means “Not Significant,” which means less than 30% agonist activity when compared to the positive control.)”. For the same compound, the pIC50 in assay [1] and in assay [2] was under 5.00 each time.

Values taken from patent US20130029970A1 (priority 2009, published 2013).
